Assay results from publication PMC8469034, “Catalytic Asymmetry in Homodimeric H^+-Pumping Membrane Pyrophosphatase Demonstrated by Non-Hydrolyzable Pyrophosphate Analogs” (International Journal of Molecular Sciences, 2021).
Read-outs that look alike come from different tables or passages of the source.

Assays:
Dh-mPPase = target: T1, Dh-mPPase (Desulfitobacterium hafniense, UniProt B8FXV7); test: continuous Pi analyzer assay of PPi hydrolysis, inverted membrane vesicles, global fit; assay type: biochemical
T1 construct: gene hppA; full-length membrane protein expressed in E. coli C41(DE3)ril, assayed in inverted membrane vesicles; homodimer; K+-dependent H+-transporting, EC 7.1.3.1
T1 sequence (B8FXV7 1-671): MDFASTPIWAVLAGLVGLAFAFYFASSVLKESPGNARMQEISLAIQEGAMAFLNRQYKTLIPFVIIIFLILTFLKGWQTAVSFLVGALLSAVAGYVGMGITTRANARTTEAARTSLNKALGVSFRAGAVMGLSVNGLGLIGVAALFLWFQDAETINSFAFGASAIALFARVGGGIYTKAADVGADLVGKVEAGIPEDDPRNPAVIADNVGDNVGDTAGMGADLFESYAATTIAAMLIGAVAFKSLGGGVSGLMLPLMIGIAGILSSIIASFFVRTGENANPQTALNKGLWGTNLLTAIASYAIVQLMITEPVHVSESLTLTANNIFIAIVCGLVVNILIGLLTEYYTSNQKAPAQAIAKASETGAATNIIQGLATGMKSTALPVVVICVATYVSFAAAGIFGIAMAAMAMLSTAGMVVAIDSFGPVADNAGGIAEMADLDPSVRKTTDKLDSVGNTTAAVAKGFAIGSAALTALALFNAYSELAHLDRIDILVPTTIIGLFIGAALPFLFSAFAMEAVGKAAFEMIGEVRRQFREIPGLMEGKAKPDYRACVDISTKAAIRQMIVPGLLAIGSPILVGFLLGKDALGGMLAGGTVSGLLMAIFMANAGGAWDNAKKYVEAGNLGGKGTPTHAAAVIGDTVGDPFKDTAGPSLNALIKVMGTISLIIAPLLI
Description: continuous Pi analyzer assay of PPi hydrolysis, inverted membrane vesicles, global fit on Dh-mPPase

[1] = substrate: O=P(O)(O)OP(=O)(O)O; test: cells, lysate or membranes; assay type: biochemical, Desulfitobacterium hafniense; details: varied free Mg2+ (extrapolated to Mg2+ saturation), 50 mM K+, 0.1 M MOPS-KOH pH 7.2, 25 °C, no inhibitor, first site of dimer, macroscopic, substrate counted as Mg2PPi

## NC(P(=O)(O)O)P(=O)(O)O [AMDP]
Dh-mPPase; read-out: Value / AMDP
  Ki: 0.4 ± 0.02 µM

## CC(O)(P(=O)(O)O)P(=O)(O)O [HEDP]
Dh-mPPase; read-out: Value / HEDP
  Ki: 27 ± 1 µM

## O=P(O)(O)NP(=O)(O)O [IDP]
Dh-mPPase; read-out: Value / IDP
  Ki: 4.2 ± 0.2 µM

B1: Dh-mPPase (Desulfitobacterium hafniense DCB-2) (protein)
chain: MDFASTPIWAVLAGLVGLAFAFYFASSVLKESPGNARMQEISLAIQEGAMAFLNRQYKTLIPFVIIIFLILTFLKGWQTAVSFLVGALLSAVAGYVGMGITTRANARTTEAARTSLNKALGVSFRAGAVMGLSVNGLGLIGVAALFLWFQDAETINSFAFGASAIALFARVGGGIYTKAADVGADLVGKVEAGIPEDDPRNPAVIADNVGDNVGDTAGMGADLFESYAATTIAAMLIGAVAFKSLGGGVSGLMLPLMIGIAGILSSIIASFFVRTGENANPQTALNKGLWGTNLLTAIASYAIVQLMITEPVHVSESLTLTANNIFIAIVCGLVVNILIGLLTEYYTSNQKAPAQAIAKASETGAATNIIQGLATGMKSTALPVVVICVATYVSFAAAGIFGIAMAAMAMLSTAGMVVAIDSFGPVADNAGGIAEMADLDPSVRKTTDKLDSVGNTTAAVAKGFAIGSAALTALALFNAYSELAHLDRIDILVPTTIIGLFIGAALPFLFSAFAMEAVGKAAFEMIGEVRRQFREIPGLMEGKAKPDYRACVDISTKAAIRQMIVPGLLAIGSPILVGFLLGKDALGGMLAGGTVSGLLMAIFMANAGGAWDNAKKYVEAGNLGGKGTPTHAAAVIGDTVGDPFKDTAGPSLNALIKVMGTISLIIAPLLI
notes: full-length membrane protein expressed in E. coli C41(DE3)ril, assayed in inverted membrane vesicles; homodimer; K+-dependent H+-transporting, EC 7.1.3.1
[1]
  Km: 2.2 ± 0.1 µM
